Experimental data reported in US11530210B2, “Substituted heteroaromatic pyrazolo-pyridines and their use as GLUN2B receptor modulators” (JANSSEN PHARMACEUTICA NV, priority 2019, dated 2022).
pIC50: −log10 of the molar value. Counter-ions that a name gives are not always drawn.

target: T1, human GluN1/GluN2B NMDA receptors (Homo sapiens, UniProt Q13224); assay: Calcium flux (FLIPR) assay on cloned human NR1/GluN2B ion channels expressed in mammalian cells (standard and HTS variants); type: cell-based; settings: cells expressing human GluN1/GluN2B, glutamate and glycine co-agonists
T1 construct: expressed in transfected cells
Method in brief: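 Tet-On-induced stable cell line loaded with Calcium 5 dye; compounds applied 5 min (agonist check), then glutamate at ~EC40 plus 10 μM glycine for 5 min. Buffer pH 7.4 with 0.5 mM MgCl2 in dye loading (standard) or 1.5 mM (HTS). FLIPR fluorescence normalized to control wells; (+)MK-801 as antagonist control.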

T1 sequence (Q13224 27-1484, other chains not shown): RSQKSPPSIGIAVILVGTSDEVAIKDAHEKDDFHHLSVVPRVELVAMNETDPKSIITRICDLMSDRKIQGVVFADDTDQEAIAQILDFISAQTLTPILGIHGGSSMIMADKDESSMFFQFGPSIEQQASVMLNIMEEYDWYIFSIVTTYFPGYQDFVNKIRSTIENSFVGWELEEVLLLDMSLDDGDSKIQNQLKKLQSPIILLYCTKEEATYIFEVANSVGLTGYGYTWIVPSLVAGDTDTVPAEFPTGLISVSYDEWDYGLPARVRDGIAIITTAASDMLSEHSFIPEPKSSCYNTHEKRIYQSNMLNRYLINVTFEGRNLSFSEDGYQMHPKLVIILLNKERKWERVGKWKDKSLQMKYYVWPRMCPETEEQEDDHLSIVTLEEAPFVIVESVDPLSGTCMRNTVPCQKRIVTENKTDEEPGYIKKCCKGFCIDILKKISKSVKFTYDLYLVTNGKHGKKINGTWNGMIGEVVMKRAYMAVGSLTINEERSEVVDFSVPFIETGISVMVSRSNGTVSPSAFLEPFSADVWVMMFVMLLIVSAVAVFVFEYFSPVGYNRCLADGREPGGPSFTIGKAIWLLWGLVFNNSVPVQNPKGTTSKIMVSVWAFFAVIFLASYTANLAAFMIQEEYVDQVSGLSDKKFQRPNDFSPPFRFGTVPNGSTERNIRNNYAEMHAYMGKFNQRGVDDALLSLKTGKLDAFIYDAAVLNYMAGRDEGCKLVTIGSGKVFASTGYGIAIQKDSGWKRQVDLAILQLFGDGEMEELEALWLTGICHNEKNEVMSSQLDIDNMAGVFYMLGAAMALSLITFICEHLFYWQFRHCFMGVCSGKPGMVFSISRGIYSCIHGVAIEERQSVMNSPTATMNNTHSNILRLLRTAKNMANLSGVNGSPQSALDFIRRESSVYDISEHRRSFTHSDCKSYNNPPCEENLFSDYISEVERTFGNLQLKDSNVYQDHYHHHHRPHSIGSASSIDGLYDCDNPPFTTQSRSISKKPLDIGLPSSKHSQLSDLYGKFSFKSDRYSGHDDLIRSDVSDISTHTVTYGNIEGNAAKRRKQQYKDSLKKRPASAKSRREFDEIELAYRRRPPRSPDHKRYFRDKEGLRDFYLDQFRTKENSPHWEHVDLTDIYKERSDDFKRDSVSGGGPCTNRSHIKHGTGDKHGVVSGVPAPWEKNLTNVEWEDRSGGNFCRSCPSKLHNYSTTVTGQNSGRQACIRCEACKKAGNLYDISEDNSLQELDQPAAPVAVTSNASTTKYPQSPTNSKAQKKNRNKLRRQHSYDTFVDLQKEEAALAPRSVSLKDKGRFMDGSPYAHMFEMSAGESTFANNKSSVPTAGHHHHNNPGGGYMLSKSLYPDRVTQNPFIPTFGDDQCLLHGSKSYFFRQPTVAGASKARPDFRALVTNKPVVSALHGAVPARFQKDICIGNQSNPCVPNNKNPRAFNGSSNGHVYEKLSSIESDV

SMILES | pIC50
Cc1nnc(Cn2ncc3ncc(-c4ccc(Cl)c(OC(F)F)c4)cc32)o1 [Example 116, 2-[[6-[4-Chloro-3-(difluoromethoxy)phenyl]pyrazolo[4,3-b]pyridin-1-yl]methyl]-5-methyl-1,3,4-oxadiazole] | 6.55
N#Cc1cncc(Cn2ncc3ncc(-c4ccc(C(F)F)s4)cc32)c1 [Example 142, 5-[[6-[5-(Difluoromethyl)-2-thienyl]pyrazolo[4,3-b]pyridin-1-yl]methyl]pyridine-3-carbonitrile] | 6.66
Cn1cnc(Cn2ncc3ncc(-c4ccc(F)c(C(F)F)c4)cc32)n1 [Example 73, 6-[3-(Difluoromethyl)-4-fluoro-phenyl]-1-[(1-methyl-1,2,4-triazol-3-yl)methyl]pyrazolo[4,3-b]pyridine] | 6.42
FC(F)(F)c1cccc(-c2cnc3cnn(Cc4nnco4)c3c2)c1 [Example 7, 2-[[6-[3-(Trifluoromethyl)phenyl]pyrazolo[4,3-b]pyridin-1-yl]methyl]-1,3,4-oxadiazole] | 6.13
FC(F)(F)c1cccc(-c2cnc3cnn(Cc4csnn4)c3c2)c1 [Example 120, 4-[[6-[3-(Trifluoromethyl)phenyl]pyrazolo[4,3-b]pyridin-1-yl]methyl]thiadiazole] | 6.05
CC(F)(F)c1cc(-c2cnc3cnn(Cc4cncc(C#N)c4)c3c2)ccc1Cl [Example 236, 5-[[6-[4-Chloro-3-(1,1-difluoroethyl)phenyl]pyrazolo[4,3-b]pyridin-1-yl]methyl]pyridine-3-carbonitrile] | 6.31
Cc1nccc(Cn2ncc3ncc(-c4cccc(C(F)(F)F)c4)cc32)n1 [Example 283, 1-[(2-Methylpyrimidin-4-yl)methyl]-6-[3-(trifluoromethyl)phenyl]pyrazolo[4,3-b]pyridine] | 5.49
Fc1ccc(-c2cnc3cnn(Cc4ccccn4)c3c2)cc1F [Example 186, 6-(3,4-Difluorophenyl)-1-(2-pyridylmethyl)pyrazolo[4,3-b]pyridine trifluoroacetate salt] | 5.60
Cc1cnc(Cn2ncc3ncc(-c4ccc(F)c(C)c4F)cc32)s1 [Example 70, 2-[[6-(2,4-Difluoro-3-methyl-phenyl)pyrazolo[4,3-b]pyridin-1-yl]methyl]-5-methyl-thiazole] | 6.46
Cc1nc(Cn2ncc3ncc(-c4ccc(F)c(C(F)F)c4)cc32)cs1 [Example 67, 4-[[6-[3-(Difluoromethyl)-4-fluoro-phenyl]pyrazolo[4,3-b]pyridin-1-yl]methyl]-2-methyl-thiazole] | 6.33
Nc1nnc(Cn2ncc3ncc(-c4ccc(F)c(OC(F)F)c4)cc32)s1 [Example 18, 5-[[6-[3-(Difluoromethoxy)-4-fluoro-phenyl]pyrazolo[4,3-b]pyridin-1-yl]methyl]-1,3,4-thiadiazol-2-amine] | 5.45
Cc1nc(Cn2ncc3ncc(-c4ccc(F)c(OC(F)F)c4)cc32)no1 [Example 114, 3-[[6-[3-(Difluoromethoxy)-4-fluoro-phenyl]pyrazolo[4,3-b]pyridin-1-yl]methyl]-5-methyl-1,2,4-oxadiazole] | 6.55
FC(F)(F)c1cccc(-c2cnc3cnn(Cc4cccnn4)c3c2)c1 [Example 258, 1-(Pyridazin-3-ylmethyl)-6-[3-(trifluoromethyl)phenyl]pyrazolo[4,3-b]pyridine] | 6.62
COc1cccc(-c2cnc3cnn(Cc4ccc(F)nc4)c3c2)c1 [Example 155, 1-[(6-Fluoro-3-pyridyl)methyl]-6-(3-methoxyphenyl)pyrazolo[4,3-b]pyridine] | 5.78
CN(C)c1nnc(Cn2ncc3ncc(-c4ccc(F)c(C(F)F)c4)cc32)o1 [Example 101, 5-[[6-[3-(Difluoromethyl)-4-fluoro-phenyl]pyrazolo[4,3-b]pyridin-1-yl]methyl]-N,N-dimethyl-1,3,4-oxadiazol-2-amine] | < 5.52
COc1ncccc1Cn1ncc2ncc(-c3ccc(F)c(OC(F)F)c3)cc21 [Example 229, 6-[3-(Difluoromethoxy)-4-fluoro-phenyl]-1-[(2-methoxy-3-pyridyl)methyl]pyrazolo[4,3-b]pyridine] | 6.15
Fc1ccc(-c2cnc3cnn(Cc4cnccn4)c3c2)cc1OC(F)F [Example 273, 6-[3-(Difluoromethoxy)-4-fluoro-phenyl]-1-(pyrazin-2-ylmethyl)pyrazolo[4,3-b]pyridine] | 6.49
Fc1ccc(-c2cnc3cnn(Cc4cccnc4)c3c2)cc1F [Example 187, 6-(3,4-Difluorophenyl)-1-(3-pyridylmethyl)pyrazolo[4,3-b]pyridine trifluoroacetate salt] | 6.66
Cc1nnc(Cn2ncc3ncc(-c4ccc(F)c(C(C)(F)F)c4)cc32)o1 [Example 104, 2-[[6-[3-(1,1-Difluoroethyl)-4-fluoro-phenyl]pyrazolo[4,3-b]pyridin-1-yl]methyl]-5-methyl-1,3,4-oxadiazole] | 6.61
Cc1ncccc1Cn1ncc2ncc(-c3cccc(C(F)(F)F)c3)cc21 [Example 166, 1-[(2-Methyl-3-pyridyl)methyl]-6-[3-(trifluoromethyl)phenyl]pyrazolo[4,3-b]pyridine] | 6.06
Fc1cncc(Cn2ncc3ncc(-c4ccc(Cl)cc4)cc32)c1 [Example 148, 6-(4-Chlorophenyl)-1-[(5-fluoro-3-pyridyl)methyl]pyrazolo[4,3-b]pyridine trifluoroacetate salt] | 6.20

Now those with a higher pIC50, led by results:

pIC50 | SMILES
6.75 | Fc1ccc(-c2cnc3cnn(Cc4ccncn4)c3c2)cc1C(F)F [Example 270, 6-[3-(Difluoromethyl)-4-fluoro-phenyl]-1-(pyrimidin-4-ylmethyl)pyrazolo[4,3-b]pyridine]
6.78 | Fc1cncc(Cn2ncc3ncc(-c4ccc(Cl)c(OC(F)F)c4)cc32)c1 [Example 240, 6-[4-Chloro-3-(difluoromethoxy)phenyl]-1-[(5-fluoro-3-pyridyl)methyl]pyrazolo[4,3-b]pyridine]
6.79 | CC(F)(F)c1cc(-c2cnc3cnn(Cc4cccnn4)c3c2)ccc1F [Example 260, 6-[3-(1,1-Difluoroethyl)-4-fluoro-phenyl]-1-(pyridazin-3-ylmethyl)pyrazolo[4,3-b]pyridine]
6.80 | Cc1cncc(Cn2ncc3ncc(-c4cc(C)cs4)cc32)c1 [Example 138, 1-[(5-Methyl-3-pyridyl)methyl]-6-(4-methyl-2-thienyl)pyrazolo[4,3-b]pyridine]
6.80 | Cc1cc(Cn2ncc3ncc(-c4ccc(F)c(C(C)(F)F)c4)cc32)no1 [Example 58, 3-[[6-[3-(1,1-Difluoroethyl)-4-fluoro-phenyl]pyrazolo[4,3-b]pyridin-1-yl]methyl]-5-methyl-isoxazole]
6.88 | Cc1ncc(Cn2ncc3ncc(-c4ccc(F)c(C(F)F)c4)cc32)o1 [Example 54, 5-[[6-[3-(Difluoromethyl)-4-fluoro-phenyl]pyrazolo[4,3-b]pyridin-1-yl]methyl]-2-methyl-oxazole]
6.94 | FC(F)Oc1cc(-c2cnc3cnn(Cc4cccnn4)c3c2)ccc1Cl [Example 265, 6-[4-Chloro-3-(difluoromethoxy)phenyl]-1-(pyridazin-3-ylmethyl)pyrazolo[4,3-b]pyridine]
7.06 | Cc1nnc(Cn2nc(F)c3ncc(-c4ccc(F)c(Cl)c4)cc32)o1 [Example 93, 2-[[6-(3-Chloro-4-fluoro-phenyl)-3-fluoro-pyrazolo[4,3-b]pyridin-1-yl]methyl]-5-methyl-1,3,4-oxadiazole]
7.17 | N#Cc1cncc(Cn2ncc3ncc(-c4cccc(C(F)F)c4F)cc32)c1 [Example 212, 5-[[6-[3-(Difluoromethyl)-2-fluoro-phenyl]pyrazolo[4,3-b]pyridin-1-yl]methyl]pyridine-3-carbonitrile]
7.19 | Cc1cc(-c2cnc3cnn(Cc4ccc(F)nc4)c3c2)ccc1F [Example 182, 6-(4-Fluoro-3-methyl-phenyl)-1-[(6-fluoro-3-pyridyl)methyl]pyrazolo[4,3-b]pyridine]
7.24 | Fc1ccc(-c2cnc3cnn(Cc4nnco4)c3c2)cc1C(F)F [Example 94, 2-[[6-[3-(Difluoromethyl)-4-fluoro-phenyl]pyrazolo[4,3-b]pyridin-1-yl]methyl]-1,3,4-oxadiazole]
7.41 | Fc1ccc(-c2cnc3cnn(Cc4cncc(Cl)c4)c3c2)cc1OC(F)F [Example 231, 1-[(5-Chloro-3-pyridyl)methyl]-6-[3-(difluoromethoxy)-4-fluoro-phenyl]pyrazolo[4,3-b]pyridine]
7.42 | Fc1ccc(-c2cnc3cnn(Cc4cccnc4)c3c2)cc1OC(F)F [Example 223, 6-[3-(Difluoromethoxy)-4-fluoro-phenyl]-1-(3-pyridylmethyl)pyrazolo[4,3-b]pyridine]
7.48 | Cc1nnc(Cn2nc(F)c3ncc(-c4ccc(F)c(C)c4)cc32)o1 [Example 90, 2-[[3-Fluoro-6-(4-fluoro-3-methyl-phenyl)pyrazolo[4,3-b]pyridin-1-yl]methyl]-5-methyl-1,3,4-oxadiazole]
7.48 | Cc1c(F)ccc(-c2cnc3cnn(Cc4cccnc4)c3c2)c1F [Example 245, 6-(2,4-Difluoro-3-methyl-phenyl)-1-(3-pyridylmethyl)pyrazolo[4,3-b]pyridine trifluoroacetate salt]
7.48 | Cc1nnc(Cn2ncc3ncc(-c4ccc(F)c(C)c4)cc32)s1 [Example 132, 2-[[6-(4-Fluoro-3-methyl-phenyl)pyrazolo[4,3-b]pyridin-1-yl]methyl]-5-methyl-1,3,4-thiadiazole]
7.60 | Fc1ccc(-c2cnc3cnn(Cc4nncs4)c3c2)cc1C(F)F [Example 121, 2-[[6-[3-(Difluoromethyl)-4-fluoro-phenyl]pyrazolo[4,3-b]pyridin-1-yl]methyl]-1,3,4-thiadiazole]
7.85 | FC(F)c1cccc(-c2cnc3cnn(Cc4cncc(Cl)c4)c3c2)c1 [Example 158, 1-[(5-Chloro-3-pyridyl)methyl]-6-[3-(difluoromethyl)phenyl]pyrazolo[4,3-b]pyridine]
